Assay results: patent publication US12521393B2, “Cytotoxicity targeting chimeras for CCR2-expressing cells” (GLAXOSMITHKLINE INTELLECTUAL PROPERTY DEVELOPMENT LIMITED, priority 2021, dated 2026)
Structures can show the parent of a compound that is named as a salt.

Tested on: endogenous target monocytes in human PBMC
Assay: PBMC ex vivo monocyte depletion flow cytometry assay (Example 200)
Assay type: cell-based
Conditions: with anti-cotinine antibody (SEQ ID NO: 11/12), 18-24 hours, EC50 in molar, read-out: Ex Vivo Depletion Assay pEC50 (converted)
Protocol: A human PBMC (peripheral blood mononuclear cells) monocyte depletion flow cytometry assay was developed to screen compounds in a 384-well plate format. This assay incorporated endogenous natural killer cells to deplete endogenous target monocytes.
To screen compounds in the human PBMC monocyte depletion flow cytometry assay, 11-point dose-response curves were made from 1 mM stocks in neat DMSO by serially diluting an ARM compound of Formula (I) four-fold into a 384-well plate row-wise. These serially diluted compounds were then stamped into a flat bottom polypropylene 384-well plate (Greiner Bio-One) at 100 nL/well. Fifty microliters of 30 μg/mL anti-cotinine antibody having a heavy chain sequence of SEQ ID NO: 11 and a light chain sequence of SEQ ID NO: 12 (rabbit variable region with human IgG1 Fc domain containing a DE mutation (S239D/1332E)) that had been diluted in assay medium (RPMI 1640 (Gibco) containing 10% fetal bovine serum (Gibco), 1% Glutamax (Gibco) and 1% sodium pyruvate (Corning) was added to the wells of the plate. The plate was centrifuged for 1 min at 500 rpm (revolutions per minute) and then shaken for 5 min at room temperature. The plate was incubated for 15 minutes at 37° C./5% CO2.
Frozen PBMC cells (HemaCare BioResearch) were thawed and centrifuged at 1,200 rpm for 4 minutes. The cells were diluted to a cell density of 2×10^6 cells/mL in assay medium. Fifty microliters of the diluted cells were added to the wells of the plate. The plate was centrifuged for 1 min at 500 rpm and incubated for 18-24 hours at 37° C./5% CO2.
After 18-24 hours incubation, 2 μL of 6.25 μg human FC block (BD Pharmingen) that was diluted in assay medium was added to the wells of the plate. The plate was centrifuged for 1 minute at 500 rpm and then incubated at room temperature for 15 minutes. Five microliters of 750 nM Helix NP NIR (Biolegend) that had been diluted in assay medium was added to the wells of the plate. Nine microliters of antibody cocktail containing 1/5 diluted fluorescein isothiocyanate (FITC) labeled anti-CD45 antibody (Beckman Coulter), PC7 labeled anti-CD14 antibody (Beckman Coulter) and phyocoerythrin (PE) anti-CD4 antibody (Beckman Coulter) was then added to the wells of the plate. The plate was centrifuged for 1 min at 500 rpm and incubated for 30 minutes at 4-8° C. Samples from the plate were run on BD FACS Canto II flow cytometer and data was analyzed using FlowJo software.
ARMs compounds of Formula (I) of the invention were tested for the ability to deplete monocytes in the above assay in one or more experimental runs and the results are shown in Table 3 below. Potency of the compounds of the invention is reported as a pEC50 value. The pEC50 value is the negative log of the EC50 value, wherein the EC50 value is the half maximal effective concentration measured in molar (M). For compounds tested in more than one experimental run, the pEC50 value is reported as an average or as the individual values measured

Row | Compound | EC50 [nM]
1 | CC(C)N(C)[C@@H]1CC[C@H](N2CC[C@H](Nc3ncnc4ccc(C(F)(F)F)cc34)C2=O)[C@H](NC(=O)c2cccc(NCCOCCOCCOCCOCCOCCNC(=O)[C@H]3CC(=O)N(C)[C@@H]3c3cccnc3)n2)C1 [Example 124, N-((1R,2S,5R)-5-(Isopropyl(methyl)amino)-2-((S)-2-oxo-3-((6-(trifluoromethyl)quinazolin-4-yl)amino)pyrrolidin-1-yl)cyclohexyl)-6-((1-((2S,3S)-1-methyl-5-oxo-2-(pyridin-3-yl)pyrrolidin-3-yl)-1-oxo-5,8, 11, 14, 17-pentaoxa-2-azanonadecan-19-yl)amino)picolinamide] | 100000
2 | CC(C)N(C)[C@@H]1CC[C@H](N2CC[C@H](Nc3ncnc4ccc(C(F)(F)F)cc34)C2=O)[C@H](NC(=O)c2ccc(NCCOCCOCCOCCOCCNC(=O)[C@H]3CC(=O)N(C)[C@@H]3c3cccnc3)nn2)C1 [Example 125, N-((1R,2S,5R)-5-(Isopropyl(methyl)amino)-2-((S)-2-oxo-3-((6-(trifluoromethyl)quinazolin-4-yl)amino)pyrrolidin-1-yl)cyclohexyl)-6-((1-((2S,3S)-1-methyl-5-oxo-2-(pyridin-3-yl)pyrrolidin-3-yl)-1-oxo-5,8,11,14-tetraoxa-2-azahexadecan-16-yl)amino) pyridazine-3-carboxamide] | 15.8
3 | CC(C)N(C)[C@@H]1CC[C@H](N2CC[C@H](Nc3ncnc4ccc(C(F)(F)F)cc34)C2=O)[C@H](NC(=O)c2ccnc(NCCOCCOCCOCCOCCNC(=O)[C@H]3CC(=O)N(C)[C@@H]3c3cccnc3)c2)C1 [Example 126, N-((1R,2S,5R)-5-(Isopropyl(methyl)amino)-2-((S)-2-oxo-3-((6-(trifluoromethyl)quinazolin-4-yl)amino)pyrrolidin-1-yl)cyclohexyl)-2-((1-((2S,3S)-1-methyl-5-oxo-2-(pyridin-3-yl)pyrrolidin-3-yl)-1-oxo-5,8,11,14-tetraoxa-2-azahexadecan-16-yl)amino)isonicotinamide, 3Trifluoroacetic acid salt] | 2.51
4 | CC(C)N(C)[C@@H]1CC[C@H](N2CC[C@H](Nc3ncnc4ccc(C(F)(F)F)cc34)C2=O)[C@H](NC(=O)c2cc(NCCOCCOCCOCCOCCNC(=O)[C@H]3CC(=O)N(C)[C@@H]3c3cccnc3)ncn2)C1 [Example 127, N-((1R,2S,5R)-5-(Isopropyl(methyl)amino)-2-((S)-2-oxo-3-((6-(trifluoromethyl)quinazolin-4-yl)amino)pyrrolidin-1-yl)cyclohexyl)-6-((1-((2S,3S)-1-methyl-5-oxo-2-(pyridin-3-yl)pyrrolidin-3-yl)-1-oxo-5,8,11, 14-tetraoxa-2-azahexadecan-16-yl)amino) pyrimidine-4-carboxamide] | 2
5 | CC(C)N(C)[C@@H]1CC[C@H](N2CC[C@H](Nc3ncnc4ccc(C(F)(F)F)cc34)C2=O)[C@H](NC(=O)c2ccc(NCCOCCOCCOCCOCCNC(=O)[C@H]3CC(=O)N(C)[C@@H]3c3cccnc3)nc2)C1 [Example 128, N-((1R,2S,5R)-5-(Isopropyl(methyl)amino)-2-((S)-2-oxo-3-((6-(trifluoromethyl)quinazolin-4-yl)amino)pyrrolidin-1-yl)cyclohexyl)-6-((1-((2S,3S)-1-methyl-5-oxo-2-(pyridin-3-yl)pyrrolidin-3-yl)-1-oxo-5,8,11, 14-tetraoxa-2-azahexadecan-16-yl)amino) nicotinamide] | 1.58
6 | CC(C)N(C)[C@@H]1CC[C@H](N2CC[C@H](Nc3ncnc4ccc(C(F)(F)F)cc34)C2=O)[C@H](NC(=O)c2cnn(C3CCN(CCOCCOCCOCCNC(=O)[C@H]4CC(=O)N(C)[C@@H]4c4cccnc4)CC3)c2)C1 [Example 129, N-((1R,2S,5R)-5-(Isopropyl(methyl)amino)-2-((S)-2-oxo-3-((6-(trifluoromethyl)quinazolin-4-yl)amino)pyrrolidin-1-yl)cyclohexyl)-1-(1-(1-((2S,3S)-1-methyl-5-oxo-2-(pyridin-3-yl)pyrrolidin-3-yl)-1-oxo-5,8,11-trioxa-2-azatridecan-13-yl)piperidin-4-yl)-1H-pyrazole-4-carboxamide] | 1.26
7 | CC(C)N(C)[C@@H]1CC[C@H](N2CC[C@H](Nc3ncnc4ccc(C(F)(F)F)cc34)C2=O)[C@H](NC(=O)C2CCC(N3CC(C(=O)NCCOCCOCCNC(=O)[C@H]4CC(=O)N(C)[C@@H]4c4cccnc4)C3)CC2)C1 (stereo partly drawn) [Example 131, (2S,3S)-N-(2-(2-(2-(1-(4-(((1R,2S,5R)-5-(Isopropyl(methyl)amino)-2-((S)-2-oxo-3-((6-(trifluoromethyl)quinazolin-4-yl)amino)pyrrolidin-1-yl)cyclohexyl)carbamoyl)cyclohexyl)azetidine-3-carboxamido)ethoxy)ethoxy)ethyl)-1-methyl-5-oxo-2-(pyridin-3-yl)pyrrolidine-3-carboxamide] | 0.501
8 | CC(C)N(C)[C@@H]1CC[C@H](N2CC[C@H](Nc3ncnc4ccc(C(F)(F)F)cc34)C2=O)[C@H](NC(=O)[C@H]2CC[C@@H](N3CCC(C(=O)NCCOCCOCCNC(=O)[C@H]4CC(=O)N(C)[C@@H]4c4cccnc4)C(F)(F)C3)CC2)C1 (stereo partly drawn) [Example 132, 3,3-Difluoro-1-((1S,4s)-4-(((1R,2S,5R)-5-(isopropyl(methyl)amino)-2-((S)-2-oxo-3-((6-(trifluoromethyl)quinazolin-4-yl)amino)pyrrolidin-1-yl)cyclohexyl)carbamoyl)cyclohexyl)-N-(2-(2-(2-((2S,3S)-1-methyl-5-oxo-2-(pyridin-3-yl)pyrrolidine-3-carboxamido)ethoxy)ethoxy)ethyl)piperidine-4-carboxamide] | 0.631
9 | CC(C)N(C)[C@@H]1CC[C@H](N2CC[C@H](Nc3ncnc4ccc(C(F)(F)F)cc34)C2=O)[C@H](NC(=O)c2ccc([C@H]3CC[C@@H](C(=O)NCCOCCOCCNC(=O)[C@H]4CC(=O)N(C)[C@@H]4c4cccnc4)CC3)cc2)C1 [Example 133, (2S,3S)-N-(2-(2-(2-((1S,4s)-4-(4-(((1R,2S,5R)-5-(Isopropyl(methyl)amino)-2-((S)-2-oxo-3-((6-(trifluoromethyl)quinazolin-4-yl)amino)pyrrolidin-1-yl)cyclohexyl)carbamoyl)phenyl)cyclohexane-1-carboxamido)ethoxy)ethoxy)ethyl)-1-methyl-5-oxo-2-(pyridin-3-yl)pyrrolidine-3-carboxamide] | 1.26
10 | CC(C)N(C)[C@@H]1CC[C@H](N2CC[C@H](Nc3ncnc4ccc(C(F)(F)F)cc34)C2=O)[C@H](NC(=O)[C@H]2CC[C@@H](N3CCC(C(=O)NCCOCCOCCNC(=O)[C@H]4CC(=O)N(C)[C@@H]4c4cccnc4)CC3)CC2)C1 [Example 134, 1-((1S,4s)-4-(((1R,2S,5R)-5-(Isopropyl(methyl)amino)-2-((S)-2-oxo-3-((6-(trifluoromethyl)quinazolin-4-yl)amino)pyrrolidin-1-yl)cyclohexyl)carbamoyl)cyclohexyl)-N-(2-(2-(2-((2S,3S)-1-methyl-5-oxo-2-(pyridin-3-yl)pyrrolidine-3-carboxamido)ethoxy)ethoxy)ethyl)piperidine-4-carboxamide, 3Formic acid salt] | 0.126
11 | CC(C)N(C)[C@@H]1CC[C@H](N2CC[C@H](Nc3ncnc4ccc(C(F)(F)F)cc34)C2=O)[C@H](NC(=O)[C@H]2CC[C@H](N3CCC(C(=O)NCCOCCOCCNC(=O)[C@H]4CC(=O)N(C)[C@@H]4c4cccnc4)CC3)CC2)C1 [Example 135, 1-((1R,4r)-4-(((1R,2S,5R)-5-(Isopropyl(methyl)amino)-2-((S)-2-oxo-3-((6-(trifluoromethyl)quinazolin-4-yl)amino)pyrrolidin-1-yl)cyclohexyl)carbamoyl)cyclohexyl)-N-(2-(2-(2-((2S,3S)-1-methyl-5-oxo-2-(pyridin-3-yl)pyrrolidine-3-carboxamido)ethoxy)ethoxy)ethyl)piperidine-4-carboxamide 3Formic acid salt] | 1.58
12 | CC(C)N(C)[C@@H]1CC[C@H](N2CC[C@H](Nc3ncnc4ccc(C(F)(F)F)cc34)C2=O)[C@H](NC(=O)[C@H]2CC[C@H](c3ccc(C(=O)NCCOCCOCCNC(=O)[C@H]4CC(=O)N(C)[C@@H]4c4cccnc4)cn3)CC2)C1 [Example 139, 6-((1R,4r)-4-(((1R,2S,5R)-5-(Isopropyl(methyl)amino)-2-((S)-2-oxo-3-((6-(trifluoromethyl)quinazolin-4-yl)amino)pyrrolidin-1-yl)cyclohexyl)carbamoyl)cyclohexyl)-N-(2-(2-(2-((2S,3S)-1-methyl-5-oxo-2-(pyridin-3-yl)pyrrolidine-3-carboxamido)ethoxy)ethoxy)ethyl)nicotinamide] | 5.01
